Source: patent US10188633B2, “Identification of small molecules that facilitate therapeutic exon skipping” (The Regents of the University of California, priority 2011, dated 2019)

Experiments:
[1] = test system: Dmd exon 23; experiment: Dmd exon 23 skipping in primary mouse myotubes with 2'-O-methyl AO M23D (RT-PCR, taqman); type: cell-based
Description: (§1) (A) Differentiated primary mouse myotubes were transfected either with 100 nM 2′-O-methyl M23D, which targets exon 23 splice donor region or mock transfected for 24 hours after which the transfection reagent was removed, and myotubes were treated with different concentrations of Dantrolene for 48 hours. Nested RT-PCR was performed on cDNA between exons 20-26, as previously described. The 901 bp band is the full-length mRNA product, the 688 bp mRNA product is a single skip of exon 23, and the 550 bp mRNA product is a double skip of exons 22 and 23. (B) Mouse Dmd exon 23-skipped transcript levels were quantified using a taqman assay with primer-probe sets spanning the splice junction created by an exon 23 skip (22-24 join) relative to primers amplifying the splice junction of exons 22 and 23 (representing the full length mRNA), as previously described. […] Error bars represent standard deviation of qRT-PCR triplicates. (C) Patient derived fibroblasts with exon 45-50 deletion (confirmed by microarray, see FIG. 6) were immortalized with lentiviral hTERT and transduced with inducible lentiviral MyoD [26]. Cells were grown to confluence, induced for MyoD activity, and fused for 10 days in low serum differentiation media. On Day 7, h51AON [5′ […] 3′] (SEQ ID NO:2) (same sequence as Pro051) within human exon 51 was added at concentrations indicated. Twenty-four hours later Dantrolene or vehicle was added. Cells were harvested 2 days later and total RNA isolated. RT-PCR amplified a fragment of cDNA from exons 42-53 which was followed by a nested PCR to generate a fragment spanning exons 43-52. The 540 bp product is the full length DMD mRNA species and the 307 bp product indicates the exon 51 skip isoform. Quantitation was performed using the Agilent Bioanalyzer and represented as the skip/full-length mRNA ratio.

[2] = test system: mdx mice; details: mouse, in vivo; cited from earlier work
[3] = test system: DMD exon 51; experiment: DMD exon 51 skipping in reprogrammed DMD patient fibroblasts fused to myotubes (GM05017, iDRM05017) with exon 51 AO; type: cell-based, human
Description: as §1
Patient fibroblasts with a DMD exon 45-50 deletion were immortalized and transduced with a lenti-viral vector expressing inducible MyoD to create iDRMs (inducibly directly reprogrammable myotubes, specifically iDRM05017s). iDRM05017s were induced for MyoD activity and then cultured for 10 days in fusion media. On Day 7, AO was added for twenty-four hours then removed and Piperacetazine, Trifluoperazine Dihydrochloride, Fluphenazine Dihydrochloride or vehicle (Dimethyl sulfoxide; DMSO) were added in fresh media. After two days total RNA was harvested, cDNA reverse transcribed with a DMD specific primer in exon 54, and exon 51 skipping was detected by nested RT-PCR spanning exons 43-52. Quantitation of exon 51 skipping was performed using the Agilent Bioanalyzer and is represented as the proportion of exon 51 skipping. Error bars represent the standard deviation (SD) of 3 independent wells.
Patient fibroblasts were transduced with HTERT and an inducible MyoD vector [26]. […] Exon 51 skipping activity was assessed in the context of transfecting an exon 51 2′-O-methyl AO with equivalent sequence to Pro051 seven days after fusion. This AO is directed at an exonic splicing enhancer (ESE) sequence within exon 51. The AO was removed prior to addition of dantrolene and cultures were harvested two days later. A nested RT-PCR was performed between DMD exons 43-52 and levels of exon 51 skipping were determined by quantitating capillary electrophoresis separated fragments representing skipped and unskipped DMD mRNA.

[4] = test system: DMD patients; details: oral, after 2 years of daily treatment; cited from earlier work
[5] = long term administration; cited from earlier work

O=C1CN(/N=C/c2ccc(-c3ccc([N+](=O)[O-])cc3)o2)C(=O)N1 [DANTROLENE]
amount of exon 23 skipped product (RT-PCR exons 20-26) ([1]; 25 and 50 uM dantrolene after 100 nM M23D): increased the amount of exon 23 skipped product | exon 23 skipping in the absence of AO ([1]; no AO): failed to cause exon 23 skipping | increase of Dmd exon 23 skipping (skip/full length mRNA, taqman) versus AO alone ([1]; with suboptimal 100 nM AO M23D, mouse myotubes): 3 fold | CK values [2]: lower CK values | AO directed DMD exon 51 skipping ([3]; compound added 24 h after AO for two days, nested RT-PCR exons 43-52): enhance AO directed DMD exon 51 skipping | enhancement of exon 51 skipping versus vehicle control ([3]; with suboptimal dose of exon 51 AO, skip/full-length mRNA ratio, Bioanalyzer): up to 8 fold | creatine kinase levels [4]: slightly reduced | manual muscle test [4]: modest improvement | side effects [4]: without substantial harmful side effects | dose shown to be safe in humans [5]: up to 8 mg/kg/day
